These results are taken from publication PMC9412374, “Design, Synthesis, and Development of pyrazolo[1,5-a]pyrimidine Derivatives as a Novel Series of Selective PI3Kδ Inhibitors: Part I—Indole Derivatives” (Pharmaceuticals, 2022).

Like-named read-outs stand apart in the source and are kept apart here. A value given as a limit tells only on which side of the number the result lay.

Holding throughout (type): biochemical
The target in one assay is T1, PI3Kδ (Homo sapiens, UniProt O00329).
T1 construct: purchased Merck Millipore
T1 sequence (P27986 whole entry): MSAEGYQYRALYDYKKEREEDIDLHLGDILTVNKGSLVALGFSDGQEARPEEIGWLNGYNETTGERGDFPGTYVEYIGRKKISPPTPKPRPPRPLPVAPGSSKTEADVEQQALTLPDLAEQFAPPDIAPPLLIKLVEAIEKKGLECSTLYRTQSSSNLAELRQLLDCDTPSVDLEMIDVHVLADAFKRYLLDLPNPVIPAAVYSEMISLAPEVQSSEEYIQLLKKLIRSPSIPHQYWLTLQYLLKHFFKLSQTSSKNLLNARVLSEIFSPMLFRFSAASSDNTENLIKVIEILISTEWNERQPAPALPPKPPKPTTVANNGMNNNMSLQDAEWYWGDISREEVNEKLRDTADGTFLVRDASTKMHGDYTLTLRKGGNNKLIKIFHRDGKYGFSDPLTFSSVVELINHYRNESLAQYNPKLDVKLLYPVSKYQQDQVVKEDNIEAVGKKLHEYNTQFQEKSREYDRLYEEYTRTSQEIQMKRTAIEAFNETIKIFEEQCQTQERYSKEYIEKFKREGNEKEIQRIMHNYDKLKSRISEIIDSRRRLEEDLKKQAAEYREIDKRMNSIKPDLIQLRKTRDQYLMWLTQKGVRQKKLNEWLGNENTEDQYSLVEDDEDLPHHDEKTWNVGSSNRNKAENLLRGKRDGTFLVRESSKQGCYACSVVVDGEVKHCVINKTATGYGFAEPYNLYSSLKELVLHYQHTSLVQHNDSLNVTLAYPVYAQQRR
T1 sequence (O00329 whole entry): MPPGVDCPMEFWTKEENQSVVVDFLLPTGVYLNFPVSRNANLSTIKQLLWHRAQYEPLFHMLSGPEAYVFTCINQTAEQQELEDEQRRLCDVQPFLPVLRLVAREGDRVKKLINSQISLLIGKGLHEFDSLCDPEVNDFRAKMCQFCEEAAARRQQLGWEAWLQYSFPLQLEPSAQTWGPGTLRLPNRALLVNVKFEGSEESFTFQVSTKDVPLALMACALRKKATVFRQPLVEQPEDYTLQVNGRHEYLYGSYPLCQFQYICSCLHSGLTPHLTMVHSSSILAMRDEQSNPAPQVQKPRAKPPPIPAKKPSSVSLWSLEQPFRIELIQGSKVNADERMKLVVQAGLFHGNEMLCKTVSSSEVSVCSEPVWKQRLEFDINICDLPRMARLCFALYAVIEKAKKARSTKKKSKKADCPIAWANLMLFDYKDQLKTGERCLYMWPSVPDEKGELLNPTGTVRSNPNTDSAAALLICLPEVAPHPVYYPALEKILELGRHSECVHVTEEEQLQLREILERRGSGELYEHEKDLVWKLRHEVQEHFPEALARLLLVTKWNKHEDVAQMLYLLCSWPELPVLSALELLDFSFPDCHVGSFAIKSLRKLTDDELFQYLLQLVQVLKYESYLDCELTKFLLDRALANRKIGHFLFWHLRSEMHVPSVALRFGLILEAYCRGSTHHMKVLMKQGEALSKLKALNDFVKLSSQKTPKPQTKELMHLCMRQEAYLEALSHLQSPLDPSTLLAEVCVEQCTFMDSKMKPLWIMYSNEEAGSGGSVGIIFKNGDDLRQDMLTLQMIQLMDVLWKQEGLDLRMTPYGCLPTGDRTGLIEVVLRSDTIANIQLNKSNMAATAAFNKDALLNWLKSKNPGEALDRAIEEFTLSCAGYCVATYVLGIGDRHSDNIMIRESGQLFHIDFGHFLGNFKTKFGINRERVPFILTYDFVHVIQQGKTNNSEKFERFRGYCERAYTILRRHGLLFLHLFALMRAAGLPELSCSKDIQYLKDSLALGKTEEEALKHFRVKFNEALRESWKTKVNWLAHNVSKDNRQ
Nature of the assay: In vitro kinase inhibition assay for PI3K (ADP-Glo), PI3Kδ. Conditions: recombinant kinase, mean of two independent experiments, read-out: IC50 PI3K δ. The procedure:
(§1) Tested compounds were dissolved in 100% DMSO, and obtained solutions were serially diluted in 1× reaction buffer. The recombinant kinase solution was diluted in a reaction mixture comprising 5× reaction buffer, respective compound solution (1 mM sodium diacetate 4,5-bisphosphate phosphatidylinositol (PIP2) solution in 40 mM Tris buffer), and water. In a 96-wells plate, 5 μL of compound solutions and 15 μL of the kinase solution in the reaction mixture were added per well. To initiate the interaction of chemical compounds to be tested with the enzyme, the plate was incubated for 10 min at a suitable temperature in a plate thermostat with orbital shaking at 600 rpm. Negative control wells contained all the above reagents except tested compound and kinase, and positive control wells contained all the above reagents except tested compounds. […] Subsequently, the plate was incubated for 1 h at 25 or 30 °C (depending on the PI3K isoform tested) in a plate thermostat with orbital shaking of the plate contents at 600 rpm. The reaction conditions are combined in the table below (Table 6).
(§2) Detection of ADP formed in the enzymatic reaction was then performed using ADP-Glo Kinase Assay™ (Promega, Madison, WI, USA). To the wells of a 96-well plate, 25 μL of ADP-Glo Reagent™ was added, and the plate was incubated for 40 min at 25 °C in a plate thermostat with orbital shaking at 600 rpm. Then 50 μL of Kinase Detection Reagent were added to each well, and the plate was incubated for 40 min at 25 °C in a plate thermostat with orbital shaking at 600 rpm. Once the incubation was complete, the luminescence intensity was measured using a Victor Light luminometer (Perkin Elmer, Inc., Waltham, MA, USA). IC50 values were determined based on luminescence intensity measured in wells containing tested compounds at different concentrations in relation to control wells. […] Each compound was tested at least in quadruplicates (4 wells) on two 96-well plates utilizing at least 4 wells for each control.
Background: ADP-Glo first removes unused ATP, then detects ADP through luciferase.

Another assay concerns the target T2, PI3Kα (Homo sapiens, UniProt P42336).
T2 construct: purchased Carna Biosciences
Nature of the assay: In vitro kinase inhibition assay for PI3K (ADP-Glo), PI3Kα. Conditions: for IC50: IC50 PI3K α, recombinant kinase, ADP-Glo, mean of two independent experiments; for Fold Selectivity α/δ: ratio of IC50 PI3Kα to IC50 PI3Kδ. The procedure:
Tested compounds were dissolved in 100% DMSO, and obtained solutions were serially diluted in 1× reaction buffer. The recombinant kinase solution was diluted in a reaction mixture comprising 5× reaction buffer, respective compound solution (1 mM sodium diacetate 4,5-bisphosphate phosphatidylinositol (PIP2) solution in 40 mM Tris buffer), and water. In a 96-wells plate, 5 μL of compound solutions and 15 μL of the kinase solution in the reaction mixture were added per well. To initiate the interaction of chemical compounds to be tested with the enzyme, the plate was incubated for 10 min at a suitable temperature in a plate thermostat with orbital shaking at 600 rpm. Negative control wells contained all the above reagents except tested compound and kinase, and positive control wells contained all the above reagents except tested compounds. The enzymatic reaction was initiated by adding 5 μL of 150 μM ATP solution. Subsequently, the plate was incubated for 1 h at 25 or 30 °C (depending on the PI3K isoform tested) in a plate thermostat with orbital shaking of the plate contents at 600 rpm. The reaction conditions are combined in the table below (Table 6).
Detection of ADP formed in the enzymatic reaction was then performed using ADP-Glo Kinase Assay™ (Promega, Madison, WI, USA). To the wells of a 96-well plate, 25 μL of ADP-Glo Reagent™ was added, and the plate was incubated for 40 min at 25 °C in a plate thermostat with orbital shaking at 600 rpm. Then 50 μL of Kinase Detection Reagent were added to each well, and the plate was incubated for 40 min at 25 °C in a plate thermostat with orbital shaking at 600 rpm. Once the incubation was complete, the luminescence intensity was measured using a Victor Light luminometer (Perkin Elmer, Inc., Waltham, MA, USA). IC50 values were determined based on luminescence intensity measured in wells containing tested compounds at different concentrations in relation to control wells. These values were calculated with Graph Pad 5.03 software by fitting the curve using non-linear regression. Each compound was tested at least in quadruplicates (4 wells) on two 96-well plates utilizing at least 4 wells for each control. Averaged results of inhibition activity respective to specific isoforms of PI3K kinases for tested compounds are presented as IC50 values in Table 1, Table 2, Table 3 and Table 4.

The next assay has as its target T3, PI3Kβ (Homo sapiens, UniProt P42338).
T3 construct: purchased Merck Millipore
Kind of assay: In vitro kinase inhibition assay for PI3K (ADP-Glo), PI3Kβ. Conditions: for Fold Selectivity β/δ: ratio of IC50 PI3Kβ to IC50 PI3Kδ. On the procedure: as §1, §2

A further assay deals with T4, PI3Kγ (Homo sapiens, UniProt P48736).
T4 construct: purchased Merck Millipore
T4 sequence (P48736 whole entry): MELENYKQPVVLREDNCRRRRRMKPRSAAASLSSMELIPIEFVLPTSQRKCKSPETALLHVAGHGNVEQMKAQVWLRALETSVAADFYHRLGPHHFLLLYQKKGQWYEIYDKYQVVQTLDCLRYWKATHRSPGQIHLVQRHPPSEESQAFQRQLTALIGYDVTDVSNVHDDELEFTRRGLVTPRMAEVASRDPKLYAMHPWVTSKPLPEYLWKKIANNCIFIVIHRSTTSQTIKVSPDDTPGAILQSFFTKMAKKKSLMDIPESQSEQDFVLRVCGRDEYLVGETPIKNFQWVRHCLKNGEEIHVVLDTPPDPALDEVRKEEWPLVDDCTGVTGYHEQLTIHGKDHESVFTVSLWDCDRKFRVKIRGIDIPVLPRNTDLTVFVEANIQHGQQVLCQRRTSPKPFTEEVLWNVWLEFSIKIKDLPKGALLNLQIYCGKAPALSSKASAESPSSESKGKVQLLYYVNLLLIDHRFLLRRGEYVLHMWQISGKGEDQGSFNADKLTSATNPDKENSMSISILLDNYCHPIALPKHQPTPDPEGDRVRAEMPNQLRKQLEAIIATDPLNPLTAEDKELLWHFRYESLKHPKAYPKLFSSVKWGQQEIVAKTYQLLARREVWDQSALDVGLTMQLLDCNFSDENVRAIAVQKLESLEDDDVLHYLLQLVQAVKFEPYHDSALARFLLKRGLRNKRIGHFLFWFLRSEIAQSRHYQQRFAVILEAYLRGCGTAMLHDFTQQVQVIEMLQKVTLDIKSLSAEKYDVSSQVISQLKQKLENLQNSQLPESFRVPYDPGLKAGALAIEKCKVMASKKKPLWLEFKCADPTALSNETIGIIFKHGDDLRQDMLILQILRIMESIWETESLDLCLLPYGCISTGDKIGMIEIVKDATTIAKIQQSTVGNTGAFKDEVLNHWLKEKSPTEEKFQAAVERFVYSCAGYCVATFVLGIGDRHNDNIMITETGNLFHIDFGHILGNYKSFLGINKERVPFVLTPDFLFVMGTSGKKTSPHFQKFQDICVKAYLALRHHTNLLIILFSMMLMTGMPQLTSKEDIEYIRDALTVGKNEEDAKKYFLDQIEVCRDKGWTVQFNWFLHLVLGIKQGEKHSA
Nature of the assay: In vitro kinase inhibition assay for PI3K (ADP-Glo), PI3Kγ. The conditions noted are these: for Fold Selectivity γ/δ: ratio of IC50 PI3Kγ to IC50 PI3Kδ. On the procedure: as §1, §2

The mark [1] stands for this setting: recombinant kinase, ADP-Glo, mean of two independent experiments, read-out: IC50 PI3K β.
[2] abbreviates: recombinant kinase, ADP-Glo, mean of two independent experiments, read-out: IC50 PI3K γ.

T2 sequence (P42336 whole entry): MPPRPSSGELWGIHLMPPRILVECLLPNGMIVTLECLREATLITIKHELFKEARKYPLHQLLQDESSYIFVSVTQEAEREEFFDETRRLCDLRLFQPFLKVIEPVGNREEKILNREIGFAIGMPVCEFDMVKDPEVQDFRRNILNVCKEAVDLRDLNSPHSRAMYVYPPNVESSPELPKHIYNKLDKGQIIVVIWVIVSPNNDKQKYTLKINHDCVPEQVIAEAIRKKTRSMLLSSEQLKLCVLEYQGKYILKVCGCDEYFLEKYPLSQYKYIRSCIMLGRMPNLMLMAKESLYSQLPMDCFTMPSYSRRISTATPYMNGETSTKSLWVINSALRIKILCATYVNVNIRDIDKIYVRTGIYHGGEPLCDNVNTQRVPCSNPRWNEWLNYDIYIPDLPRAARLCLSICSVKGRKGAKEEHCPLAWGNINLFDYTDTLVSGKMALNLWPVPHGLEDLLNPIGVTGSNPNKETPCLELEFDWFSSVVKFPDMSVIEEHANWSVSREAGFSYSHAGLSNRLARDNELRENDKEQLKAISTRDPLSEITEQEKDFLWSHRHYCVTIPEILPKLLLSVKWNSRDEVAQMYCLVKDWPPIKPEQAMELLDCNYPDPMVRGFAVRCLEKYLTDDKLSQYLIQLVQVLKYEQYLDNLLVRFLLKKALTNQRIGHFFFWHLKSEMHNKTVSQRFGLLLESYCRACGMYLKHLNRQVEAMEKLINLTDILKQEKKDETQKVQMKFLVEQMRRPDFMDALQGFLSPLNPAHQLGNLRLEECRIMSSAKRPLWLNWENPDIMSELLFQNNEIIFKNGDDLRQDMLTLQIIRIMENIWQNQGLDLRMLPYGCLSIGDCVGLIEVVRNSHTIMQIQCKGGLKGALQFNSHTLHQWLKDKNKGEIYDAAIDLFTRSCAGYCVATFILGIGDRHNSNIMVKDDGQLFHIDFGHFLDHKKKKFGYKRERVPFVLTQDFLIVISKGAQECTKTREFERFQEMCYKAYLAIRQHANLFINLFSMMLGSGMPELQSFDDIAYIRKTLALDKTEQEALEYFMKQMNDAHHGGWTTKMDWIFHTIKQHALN
T2 sequence (P27986 whole entry partner): as the sequence (P27986 whole entry) above
T3 sequence (P42338 whole entry): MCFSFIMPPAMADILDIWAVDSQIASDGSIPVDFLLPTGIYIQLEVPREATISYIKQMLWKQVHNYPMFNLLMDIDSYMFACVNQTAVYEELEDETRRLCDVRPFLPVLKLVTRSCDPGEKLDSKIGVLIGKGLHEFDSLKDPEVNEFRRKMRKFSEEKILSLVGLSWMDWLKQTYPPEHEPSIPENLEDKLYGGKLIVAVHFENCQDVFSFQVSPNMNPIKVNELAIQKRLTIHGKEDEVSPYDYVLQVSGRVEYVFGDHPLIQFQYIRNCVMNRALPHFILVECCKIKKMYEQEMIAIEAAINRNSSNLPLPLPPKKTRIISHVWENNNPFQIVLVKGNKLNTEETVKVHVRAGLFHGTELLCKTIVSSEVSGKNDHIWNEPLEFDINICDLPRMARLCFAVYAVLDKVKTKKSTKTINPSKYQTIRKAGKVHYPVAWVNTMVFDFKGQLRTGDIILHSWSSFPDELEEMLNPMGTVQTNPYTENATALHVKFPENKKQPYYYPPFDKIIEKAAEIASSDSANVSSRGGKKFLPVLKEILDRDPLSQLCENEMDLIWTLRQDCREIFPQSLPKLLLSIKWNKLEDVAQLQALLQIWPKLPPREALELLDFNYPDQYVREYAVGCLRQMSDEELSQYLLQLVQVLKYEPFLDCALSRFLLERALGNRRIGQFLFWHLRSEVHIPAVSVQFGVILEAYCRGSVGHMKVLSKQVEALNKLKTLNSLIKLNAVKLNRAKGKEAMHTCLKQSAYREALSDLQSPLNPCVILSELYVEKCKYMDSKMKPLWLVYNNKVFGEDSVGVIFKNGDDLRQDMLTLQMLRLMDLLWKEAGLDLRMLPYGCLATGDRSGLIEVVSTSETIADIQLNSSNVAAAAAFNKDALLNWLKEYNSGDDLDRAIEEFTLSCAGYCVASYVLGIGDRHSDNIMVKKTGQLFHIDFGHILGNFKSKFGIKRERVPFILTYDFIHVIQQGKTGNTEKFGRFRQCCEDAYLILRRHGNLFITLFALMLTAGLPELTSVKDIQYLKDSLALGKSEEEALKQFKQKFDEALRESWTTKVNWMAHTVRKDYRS
T3 sequence (P27986 whole entry, further chain): as the sequence (P27986 whole entry) above

Regarding `CC(C)(O)C1CCN(Cc2cc3nc(-c4c(F)ccc5[nH]ccc45)cc(N4CCOCC4)n3n2)CC1` [Compound 49, 2-((4-(2-hydroxypropan-2-yl)piperidin-1-yl)methyl)-5-(5-fluoro-1H-indol-4-yl)-7-(morpholin-4-yl)pyrazolo[1,5-a]pyrimidine], the half-maximal inhibitory concentration (IC50) on PI3Kδ was found to be 0.04 µM; at PI3Kα, 34.4 µM; on PI3Kβ (setting [1]), 11.3 µM; on PI3Kγ (setting [2]), 47.8 µM. Further, the “Fold Selectivity α/δ” value at PI3Kα is on record as 860. In addition, the “Fold Selectivity β/δ” value on PI3Kβ was 283. The “Fold Selectivity γ/δ” value on PI3Kγ worked out at 1195.

`CCN1CCN(Cc2cc3nc(-c4cccc5[nH]ccc45)cc(N4CCOCC4)n3n2)CC1` [Compound 34, 2-((4-ethylpiperazin-1-yl)methyl)-5-(1H-indol-4-yl)-7-(morpholin-4-yl)pyrazolo[1,5-a]pyrimidine]: the IC50 at PI3Kδ is 0.043 µM; on PI3Kα, 34.3 µM; on PI3Kβ (setting [1]), 10.9 µM; at PI3Kγ (setting [2]), over 60 µM. Also, on PI3Kα, the “Fold Selectivity α/δ” value worked out at 798. In addition, the “Fold Selectivity β/δ” value on PI3Kβ amounted to 253. The “Fold Selectivity γ/δ” value on PI3Kγ was over 1395.

As for `c1cc(-c2cc(N3CCOCC3)n3nc(CN4CCN(C5CC5)CC4)cc3n2)c2cc[nH]c2c1` [Compound 39, 2-((4-cyclopropylpiperazin-1-yl)methyl)-5-(1H-indol-4-yl)-7-(morpholin-4-yl)pyrazolo[1,5-a]pyrimidine], the values for the 50% inhibitory concentration (IC50) on PI3Kδ, at PI3Kα and at PI3Kβ (setting [1]) were 0.058 µM, 25.3 µM and 15 µM, respectively. For the same compound, on PI3Kα, the “Fold Selectivity α/δ” value worked out at 436. In addition, on PI3Kβ, the “Fold Selectivity β/δ” value is on record as 259.

With `CC(C)(C)C1CCN(Cc2cc3nc(-c4cccc5[nH]ccc45)cc(N4CCOCC4)n3n2)CC1` [Compound 41, 2-((4-tert-butylpiperidin-1-yl)methyl)-5-(1H-indol-4-yl)-7-(morpholin-4-yl)pyrazolo[1,5-a]pyrimidine], the IC50 is 0.051 µM at PI3Kδ, 12.3 µM at PI3Kα, 3.17 µM on PI3Kβ (setting [1]) and 9.73 µM at PI3Kγ (setting [2]). Moreover, the “Fold Selectivity α/δ” value at PI3Kα came out at 241. Also, the “Fold Selectivity β/δ” value on PI3Kβ is recorded as 62. Moreover, at PI3Kγ, the “Fold Selectivity γ/δ” value was determined as 191.

Take `CC(C)(C)N1CCN(Cc2cc3nc(-c4ccnc5[nH]ccc45)cc(N4CCOCC4)n3n2)CC1` [Compound 55, 2-((4-tert-butylpiperazin-1-yl)methyl)-5-(1H-pyrrolo [2,3-b]pyridin-4-yl)-7-(morpholin-4-yl)pyrazolo[1,5-a]pyrimidine]: the results for the half-inhibitory concentration (IC50) at PI3Kδ, on PI3Kα and at PI3Kβ (setting [1]) were 0.045 µM, 2.96 µM and 32 µM, respectively. Also, on PI3Kα, the “Fold Selectivity α/δ” value came to 66. The “Fold Selectivity β/δ” value at PI3Kβ is 711.

On to `CC(C)(O)C1CCN(Cc2cc3nc(-c4cncc5[nH]ccc45)cc(N4CCOCC4)n3n2)CC1` [Compound 50, 2-((4-(2-hydroxypropan-2-yl)piperidin-1-yl)methyl)-5-(1H-pyrrolo [2,3-c]pyridin-4-yl)-7-(morpholin-4-yl)pyrazolo[1,5-a]pyrimidine], for which the half-maximal inhibitory concentration (IC50) at PI3Kδ was found to be 0.028 µM; at PI3Kα it was 3.65 µM; on PI3Kβ (setting [1]), 5.26 µM. In addition, the “Fold Selectivity α/δ” value on PI3Kα is listed as 130. Besides, the “Fold Selectivity β/δ” value at PI3Kβ worked out at 188.

Take `CC(C)(C(N)=O)N1CCN(Cc2cc3nc(-c4cccc5[nH]ccc45)cc(N4CCOCC4)n3n2)CC1` [Compound 38, 2-(4-((5-(1H-indol-4-yl)-7-(morpholin-4-yl)pyrazolo[1,5-a]pyrimidin-2-yl)methyl)piperazin-1-yl)-2-methylpropionamide]: the IC50 at PI3Kδ stood at 0.041 µM; on PI3Kα, 17.7 µM; at PI3Kβ (setting [1]), 5.99 µM; against PI3Kγ it was 17.5 µM. For the same compound, the “Fold Selectivity α/δ” value at PI3Kα turned out to be 433. Moreover, the “Fold Selectivity β/δ” value at PI3Kβ came to 146. The “Fold Selectivity γ/δ” value on PI3Kγ is listed as 428.

For the compound `CC(C)(O)C1CCN(Cc2cc3nc(-c4ccnc5[nH]ccc45)cc(N4CCOCC4)n3n2)CC1` [Compound 51, 2-((4-(2-hydroxypropan-2-yl)piperidin-1-yl)methyl)-5-(1H-pyrrolo [2,3-b]pyridin-4-yl)-7-(morpholin-4-yl)pyrazolo[1,5-a]pyrimidine], the figures for the IC50 on PI3Kδ, at PI3Kα and at PI3Kβ (setting [1]) were 0.023 µM, 9.75 µM and 26.8 µM, respectively. The “Fold Selectivity α/δ” value at PI3Kα was found to be 424. Moreover, at PI3Kβ, the “Fold Selectivity β/δ” value stood at 1165.

With `CC(C)(C)N1CCN(Cc2cc3nc(-c4c(F)ccc5[nH]ccc45)cc(N4CCOCC4)n3n2)CC1` [Compound 53, 2-((4-tert-butylpiperazin-1-yl)methyl)-5-(5-fluoro-1H-indol-4-yl)-7-(morpholin-4-yl)pyrazolo[1,5-a]pyrimidine], the half-maximal inhibitory concentration (IC50) at PI3Kδ was 0.011 µM; at PI3Kα it was 19.3 µM; against PI3Kβ, 19.5 µM; at PI3Kγ (setting [2]), over 60 µM. Besides, the “Fold Selectivity α/δ” value at PI3Kα is 1754. In addition, the “Fold Selectivity β/δ” value on PI3Kβ stood at 1768. On PI3Kγ, the “Fold Selectivity γ/δ” value is on record as over 5455.

As for `CC(C)(O)C1CCN(Cc2cc3nc(-c4cccc5[nH]ccc45)cc(N4CCOCC4)n3n2)CC1` [Compound 36, 2-((4-(2-hydroxypropan-2-yl)piperidin-1-yl)methyl)-5-(1H-indol-4-yl)-7-(morpholin-4-yl)pyrazolo[1,5-a]pyrimidine], the 50% inhibitory concentration (IC50) on PI3Kδ was determined as 0.013 µM; at PI3Kα, 15.8 µM; on PI3Kβ (setting [1]), 4.31 µM; on PI3Kγ, 15.9 µM. Also, the “Fold Selectivity α/δ” value at PI3Kα stood at 1217. Further, the “Fold Selectivity β/δ” value on PI3Kβ came to 332. Further, on PI3Kγ, the “Fold Selectivity γ/δ” value is recorded as 1223.

`O=C(C1CC1)N1CCN(Cc2cc3nc(-c4cccc5[nH]ccc45)cc(N4CCOCC4)n3n2)CC1` [Compound 44, 2-((4-(cyclopropanecarbonyl)piperazin-1-yl)methyl)-5-(1H-indol-4-yl)-7-(morpholin-4-yl)pyrazolo[1,5-a]pyrimidine]: the half-inhibitory concentration (IC50) turned out to be 0.022 µM at PI3Kδ, 1.27 µM at PI3Kα, 7.31 µM at PI3Kβ (setting [1]) and 0.846 µM on PI3Kγ (setting [2]). Besides, the “Fold Selectivity α/δ” value on PI3Kα stood at 58. The “Fold Selectivity β/δ” value at PI3Kβ was found to be 332. In addition, on PI3Kγ, the “Fold Selectivity γ/δ” value is 38.

On to `CCNC(=O)NC1CCN(Cc2cc3nc(-c4cccc5[nH]ccc45)cc(N4CCOCC4)n3n2)CC1` [Compound 30, 3-ethyl-1-(1-((5-(1H-indol-4-yl)-7-(morpholin-4-yl)pyrazolo[1,5-a]pyrimidin-2-yl)methyl)piperidin-4-yl)urea], for which the 50% inhibitory concentration (IC50) at PI3Kδ came out at 0.36 µM. Besides, at PI3Kα, the concentration for half-maximal inhibition (IC50) was 14.2 µM and the “Fold Selectivity α/δ” value is on record as 39.

`c1cc(-c2cc(N3CCOCC3)n3nc(CN4CCN(CC5CC5)CC4)cc3n2)c2cc[nH]c2c1` [Compound 45, 2-((4-(cyclopropylmethyl)piperazin-1-yl)methyl)-5-(1H-indol-4-yl)-7-(morpholin-4-yl)pyrazolo[1,5-a]pyrimidine]: the IC50 at PI3Kδ was 0.029 µM. In addition, on PI3Kα, the IC50 was 6.32 µM and the “Fold Selectivity α/δ” value was 218.

One may read the IC50 as the concentration that inhibits the measured activity by half.
